# Key:
# [1] = molecular target: GDP-bound KRAS wild-type protein (Homo sapiens, UniProt P01116); experiment: Binding to KRAS by surface plasmon resonance (SPR), dissociation constant KD
# Method in brief: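 Compound binding is evaluated by SPR single-cycle kinetics, with concentrations added intermittently from low to high for 75 s each. Target surfaces carry GDP-loaded biotinylated Avi-RAS at about 100–300 RU, regenerated after each cycle; temperature 30°C. A 1:1 binding model gives KD.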
# [2] = molecular target: GDP-bound NRAS wild-type protein (Homo sapiens, UniProt P01111); experiment: Binding to NRAS by surface plasmon resonance (SPR), KD and KD ratio to KRAS
# Chain of GDP-bound NRAS wild-type protein (P01111 whole entry): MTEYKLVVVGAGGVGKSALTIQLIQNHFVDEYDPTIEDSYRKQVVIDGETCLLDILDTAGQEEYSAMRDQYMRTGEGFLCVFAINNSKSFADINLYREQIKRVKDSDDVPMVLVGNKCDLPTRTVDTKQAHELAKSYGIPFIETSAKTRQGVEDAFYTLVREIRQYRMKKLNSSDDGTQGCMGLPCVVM
# Method in brief: (§1)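 Recombinant RAS proteins bearing a biotinylated Avi tag and loaded with GDP served as the captured ligand, recaptured fresh every cycle. Binding responses were referenced to an uncoated surface and a buffer-only blank cycle. Dissociation constants were obtained by 1:1 model fitting at 30°C.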
# [3] = molecular target: HRAS wild-type protein (Homo sapiens, UniProt P01112); experiment: Binding to HRAS by surface plasmon resonance (SPR), KD and KD ratio to KRAS
# Chain of HRAS wild-type protein (P01112 whole entry): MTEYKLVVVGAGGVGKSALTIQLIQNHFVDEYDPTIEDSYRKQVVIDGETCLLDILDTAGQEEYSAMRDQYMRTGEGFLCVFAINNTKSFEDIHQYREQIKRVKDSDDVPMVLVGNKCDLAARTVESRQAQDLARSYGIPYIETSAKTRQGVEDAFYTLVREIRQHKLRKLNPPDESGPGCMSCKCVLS
# Method in brief: as §1
# [4] = system: human lung cancer strain NCI-H441; assay type: cell-based
# Method in brief: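 Signal came from […] measured per well once the reagent was added. Beforehand, cells were cultured at 37°C and 5% carbon dioxide on a compound series serially diluted in dimethyl sulfoxide.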
# [5] = ratio of KD for GDP-bound NRAS wild-type protein to KD for KRAS
# [6] = ratio of KD for HRAS wild-type protein to KD for KRAS
# [7] = Single Cycle Kinetics, 1:1 binding model
# [8] = ratio of the KD value with respect to GDP-bound NRAS wild-type protein to the KD value with respect to KRAS
# [9] = ratio of the KD value with respect to HRAS wild-type protein to the KD value with respect to KRAS
# Chain of GDP-bound KRAS wild-type protein (P01116 1-188 isoform P01116-2): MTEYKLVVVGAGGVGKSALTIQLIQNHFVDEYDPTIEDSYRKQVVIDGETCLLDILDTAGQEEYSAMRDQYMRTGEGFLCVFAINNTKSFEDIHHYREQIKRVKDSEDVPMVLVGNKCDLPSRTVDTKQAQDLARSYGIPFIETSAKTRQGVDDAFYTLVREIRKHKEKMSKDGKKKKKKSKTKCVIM
Compound,Kd ([1]; 1:1 binding model) [nM],IC50 [4] [nM],Kd ([1]; Single Cycle Kinetics) [nM],"Kd [1, 7] [nM]","NRAS /KRAS [2, 5]","HRAS /KRAS [3, 6]","NRAS /KRAS [2, 8]","HRAS /KRAS [3, 9]"
CCO[C@@H]1C[C@H]2C(=O)NC3(CCC3)C(=O)N(C)[C@@H](C3CCCC3)C(=O)N(C)[C@H](C(=O)N3CCOCC3)CC(=O)N(C)[C@@H](Cc3cccc(F)c3)C(=O)N[C@@H]([C@@H](C)CC)C(=O)N(C)CC(=O)N(C)[C@H]3CCCCCN(C3=O)[C@@H](Cc3ccc(C(F)(F)F)cc3)C(=O)N(C)CC(=O)N[C@@H](CCc3cc(F)c(C(F)(F)F)c(F)c3)C(=O)N2C1 [PP0856],,66.7,0.96,,B (a compound having 3 or more and less than 10 is denoted as B),B (a compound having 3 or more and less than 10 is denoted as B),,
CCO[C@@H]1C[C@H]2C(=O)NC3(CC(C)(C)C3)C(=O)N(C)[C@@H](C3CCCC3)C(=O)N(C)[C@H](C(=O)N(C)CC)CC(=O)N(C)[C@@H](CC(C)C)C(=O)N[C@@H]([C@@H](C)CC)C(=O)N(C)CC(=O)N(C)[C@H]3C/C=C\CCN(C3=O)[C@@H](Cc3ccc(C(F)F)cc3)C(=O)N(C)CC(=O)N[C@@H](CCc3cc(F)c(Cl)c(OC)c3)C(=O)N2C1 [PP3142],0.44,39.3,,,A (a compound having 10 or more and less than 20 is denoted as A),A (a compound having 10 or more and less than 20 is denoted as A),,
CC[C@H](C)[C@@H]1NC(=O)[C@H](CC(C)C)N(C)C(=O)C[C@@H](C(=O)N2CCOCC2)N(C)C(=O)[C@H](C2CCCC2)N(C)C(=O)C2(CCC2)NC(=O)[C@]2(C)CCCN2C(=O)[C@H](CCc2cc(F)c(C(F)(F)F)c(F)c2)NC(=O)CN(C)C(=O)[C@H](Cc2ccc(C(F)(F)F)cc2)N2CCCCC[C@@H](C2=O)N(C)C(=O)CN(C)C1=O [PP0817],,112,0.36,,A (a compound having 10 or more and less than 20 is denoted as A),B (a compound having 3 or more and less than 10 is denoted as B),,
CCO[C@@H]1C[C@H]2C(=O)NC3(CC(C)(C)C3)C(=O)N(C)[C@@H](C(CC)CC)C(=O)N(C)[C@H](C(=O)N3CCCC3)CC(=O)N(C)[C@@H](COC)C(=O)N[C@@H]([C@@H](C)CC)C(=O)N(C)CC(=O)N(C)[C@H]3C/C=C\CCN(C3=O)[C@@H](Cc3ccc(C)cc3)C(=O)N(C)CC(=O)N[C@@H](CCc3cc(F)c(C(F)(F)F)c(F)c3)C(=O)N2C1 [PP2139],,38,,0.38,,,AA (a compound having 20 or more is denoted as AA),A (a compound having 10 or more and less than 20 is denoted as A)
CCO[C@@H]1C[C@H]2C(=O)NC3(CC(C)(C)C3)C(=O)N(C)[C@@H](C3CCCC3)C(=O)N(C)[C@H](C(=O)N(C)CC)CC(=O)N(C)[C@@H]([C@@H](C)OC)C(=O)N[C@@H]([C@@H](C)CC)C(=O)N3CCC[C@H]3C(=O)N(C)[C@H]3C/C=C\CCN(C3=O)[C@@H](Cc3ccc(C)cc3)C(=O)N(C)CC(=O)N[C@@H](CCc3cc(F)c(C(F)(F)F)c(F)c3)C(=O)N2C1 [PP3190],0.87,29.9,,,A (a compound having 10 or more and less than 20 is denoted as A),B (a compound having 3 or more and less than 10 is denoted as B),,

# Molecules with a lower IC50 [4], results first:
Kd ([1]; 1:1 binding model) [nM],IC50 [4] [nM],Kd ([1]; Single Cycle Kinetics) [nM],"Kd [1, 7] [nM]",Compound,"NRAS /KRAS [2, 5]","HRAS /KRAS [3, 6]","NRAS /KRAS [2, 8]","HRAS /KRAS [3, 9]"
,24,,0.29,CCCOC[C@H]1C(=O)N[C@@H]([C@@H](C)CC)C(=O)N(C)CC(=O)N(C)[C@H]2C/C=C\CCN(C2=O)[C@@H](Cc2ccc(C)cc2)C(=O)N(C)CC(=O)N[C@@H](CCc2cc(F)c(C(F)(F)F)c(F)c2)C(=O)N2C[C@H](CC)C[C@H]2C(=O)NC2(CCCC2)C(=O)N(C)[C@@H](C2CCCC2)C(=O)N(C)[C@H](C(=O)N(C)C)CC(=O)N1C [PP2218],,,A (a compound having 10 or more and less than 20 is denoted as A),A (a compound having 10 or more and less than 20 is denoted as A)
,9.4,,0.17,CCO[C@@H]1C[C@H]2C(=O)NC3(CC(C)(C)C3)C(=O)N(C)[C@@H](C(CC)CC)C(=O)N(C)[C@H](C(=O)N(C)C)CC(=O)N(C)[C@@H](CC(C)C)C(=O)N[C@@H]([C@@H](C)CC)C(=O)N(C)CC(=O)N(C)[C@H]3C/C=C\CCN(C3=O)[C@@H](Cc3ccc(C)cc3)C(=O)N(C)CC(=O)N[C@@H](CCc3cc(F)c(C(F)(F)F)c(F)c3)C(=O)N2C1 [PP2141],,,A (a compound having 10 or more and less than 20 is denoted as A),A (a compound having 10 or more and less than 20 is denoted as A)
0.12,3.5,,,CCC[C@H]1C(=O)N[C@@H]([C@@H](C)CC)C(=O)N(C)CC(=O)N(C)[C@H]2C/C=C\CCN(C2=O)[C@@H](Cc2ccc(C)cc2)C(=O)N(C)CC(=O)N[C@@H](CCc2cc(Cl)c3sccc3c2)C(=O)N2C[C@H](OCC)C[C@H]2C(=O)NC2(CC(C)(C)C2)C(=O)N(C)[C@@H](C2CCCC2)C(=O)N(C)[C@H](C(=O)N(C)C)CC(=O)N1C [PP2947],B (a compound having 3 or more and less than 10 is denoted as B),B (a compound having 3 or more and less than 10 is denoted as B),,
